Results published in patent publication US7138361B2, “Herbicidal heterocycles” (E. I. du Pont de Nemours and Company, priority 2000, dated 2006).

Legend:
Type in all cases: in vivo
[1] = test system: smallflower flatsedge (Cyperus difformis); test: Test C flooded paddy test; settings: for Flatsedge plant response rating: Flooded Paddy, scale 0 to 100, 0 no effect, 100 complete control; for Plant response rating, Flatsedge: flooded paddy test, scale 0 to 100 (0 no effect, 100 complete control)
Method in brief: (§1)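 Response on a 0-to-100 scale (no effect to complete control) was assessed by eye versus controls. Plants had reached 2 leaves when treated in flooded paddy conditions. The assessment took place after 12–14 days of greenhouse growth.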

[2] = test system: barnyardgrass (Echinochloa crus-galli); test: Test C flooded paddy test; settings: for Barnyardgrass plant response rating: Flooded Paddy, scale 0 to 100, 0 no effect, 100 complete control; for Plant response rating, Barnyardgrass: flooded paddy test, scale 0 to 100 (0 no effect, 100 complete control)
Method in brief: as §1

[3] = test system: duck salad (Heteranthera limosa); test: Test C flooded paddy test; settings: for Ducksalad plant response rating: Flooded Paddy, scale 0 to 100, 0 no effect, 100 complete control; for Plant response rating, Ducksalad: flooded paddy test, scale 0 to 100 (0 no effect, 100 complete control)
Method in brief: as §1

rice (Oryza saliva) [4] = test: Test C flooded paddy test; settings: for Rice plant response rating: Flooded Paddy, scale 0 to 100, 0 no effect, 100 complete control; for Plant response rating, Rice: flooded paddy test, scale 0 to 100 (0 no effect, 100 complete control)
Method in brief: as §1

[5] = test system: barnyardgrass (Echinochloa crus-galli); test: Test B postemergence; settings: 13 to 15 days
Method in brief: (§2)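 Ratings on a 0 to 100 visual scale (100 complete control) compare treated plants with controls 13 to 15 days after application. Treatments were pre- or postemergence sprays of compound in non-phytotoxic solvent with surfactant.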

[6] = test system: cocklebur (Xanthium strumarium); test: Test B postemergence; settings: 13 to 15 days
Method in brief: as §2

[7] = test system: velvetleaf (Abutilon theophrasti); test: Test B postemergence; settings: 13 to 15 days
Method in brief: as §2

[8] = test system: Surinam grass (Brachiaria decumbens); test: Test B postemergence; settings: 13 to 15 days
Method in brief: as §2

corn (Zea mays) [9] = test: Test B postemergence; settings: 13 to 15 days
Method in brief: as §2

[10] = test system: morning glory (Ipomoea hederacea); test: Test B postemergence; settings: 13 to 15 days
Method in brief: as §2

[11] = test system: crabgrass (Digitaria sanguinalis); test: Test B postemergence; settings: 13 to 15 days
Method in brief: as §2

wild oat (Avena fatua) = test: Test B postemergence; settings: 13 to 15 days
Method in brief: as §2

[12] = test system: giant foxtail (Setaria faberii); test: Test B postemergence; settings: 13 to 15 days
Method in brief: as §2

[13] = test system: lambsquarters (Chenopodium album); test: Test B postemergence; settings: 13 to 15 days
Method in brief: as §2

[14] = test system: pigweed (Amaranthus retroflexus); test: Test B postemergence; settings: 13 to 15 days
Method in brief: as §2

[15] = test system: blackgrass (Alopecurus myosuroides); test: Test B postemergence; settings: 13 to 15 days
Method in brief: as §2

[16] = test system: wheat (Triticum aestivum); test: Test B postemergence; settings: 13 to 15 days
Method in brief: as §2

[17] = test system: barnyardgrass (Echinochloa crus-galli); test: Test B preemergence
Method in brief: as §2

[18] = test system: cocklebur (Xanthium strumarium); test: Test B preemergence
Method in brief: as §2

[19] = test system: velvetleaf (Abutilon theophrasti); test: Test B preemergence
Method in brief: as §2

[20] = test system: Surinam grass (Brachiaria decumbens); test: Test B preemergence
Method in brief: as §2

corn (Zea mays) [21] = test: Test B preemergence
Method in brief: as §2

[22] = test system: morning glory (Ipomoea hederacea); test: Test B preemergence
Method in brief: as §2

[23] = test system: crabgrass (Digitaria sanguinalis); test: Test B preemergence
Method in brief: as §2

[24] = test system: giant foxtail (Setaria faberii); test: Test B preemergence
Method in brief: as §2

[25] = test system: lambsquarters (Chenopodium album); test: Test B preemergence
Method in brief: as §2

[26] = test system: pigweed (Amaranthus retroflexus); test: Test B preemergence
Method in brief: as §2

rice (Oryza saliva) [27] = test: Test B preemergence
Method in brief: as §2

[28] = Rate 125 g/ha, scale 0 (no effect) to 100 (complete control)
[29] = Rate 500 g/ha, scale 0 to 100, 0 is no effect, 100 is complete control
[30] = Preemergence, Rate 500 g/ha, scale 0 to 100, 0 no effect, 100 complete control
[31] = preemergence, Rate 125 g/ha, scale of 0 to 100 where 0 is no effect and 100 is complete control, 13 to 15 days

Cc1c(Cl)cc(N2CCC(n3ccc(C(C)(C)C)n3)C2=O)cc1Cl (stereo not shown) [Compound 74]
Flatsedge plant response rating ([1]; Rate 250 g/ha): 0
Flatsedge plant response rating ([1]; Rate 500 g/ha): 40
Plant response rating, Flatsedge ([1]; Rate 62 g/ha): 0
Plant response rating, Flatsedge ([1]; Rate 125 g/ha): 0
Barnyardgrass plant response rating ([2]; Rate 250 g/ha): 0
Barnyardgrass plant response rating ([2]; Rate 500 g/ha): 0
Plant response rating, Barnyardgrass ([2]; Rate 62 g/ha): 0
Plant response rating, Barnyardgrass ([2]; Rate 125 g/ha): 0
Ducksalad plant response rating ([3]; Rate 250 g/ha): 0
Ducksalad plant response rating ([3]; Rate 500 g/ha): 0
Plant response rating, Ducksalad ([3]; Rate 62 g/ha): 0
Plant response rating, Ducksalad ([3]; Rate 125 g/ha): 0
Rice plant response rating (rice (Oryza saliva) [4]; Rate 250 g/ha): 0
Rice plant response rating (rice (Oryza saliva) [4]; Rate 500 g/ha): 0
Plant response rating, Rice (rice (Oryza saliva) [4]; Rate 62 g/ha): 0
Plant response rating, Rice (rice (Oryza saliva) [4]; Rate 125 g/ha): 0
Plant response rating, Barnyardgrass [5, 28]: 0
Plant response rating, Barnyardgrass [5, 29]: 0
Plant response rating, Cocklebur [6, 28]: 0
Plant response rating, Cocklebur [6, 29]: 0
Plant response rating, Velvetleaf [7, 28]: 0
Plant response rating, Velvetleaf [7, 29]: 0
Plant response rating, Surinam grass [8, 28]: 0
Plant response rating, Surinam grass [8, 29]: 0
Plant response rating, Corn (corn (Zea mays) [9]; [28]): 0
Plant response rating, Corn (corn (Zea mays) [9]; [29]): 0
Plant response rating, Morningglory [10, 28]: 0
Plant response rating, Morningglory [10, 29]: 0
Plant response rating, Crabgrass [11, 28]: 0
Plant response rating, Crabgrass [11, 29]: 0
Plant response rating, Wild Oat (wild oat (Avena fatua); [28]): 0
Plant response rating, Wild Oat (wild oat (Avena fatua); [29]): 0
Plant response rating, Foxtail, Giant [12, 28]: 0
Plant response rating, Foxtail, Giant [12, 29]: 0
Plant response rating, Lambsquarters [13, 28]: 0
Plant response rating, Lambsquarters [13, 29]: 0
Plant response rating, Pigweed [14, 28]: 80
Plant response rating, Pigweed [14, 29]: 90
Plant response rating, Blackgrass [15, 28]: 0
Plant response rating, Blackgrass [15, 29]: 0
Plant response rating, Wheat [16, 28]: 0
Plant response rating, Wheat [16, 29]: 0
Plant response rating, Barnyardgrass [17, 30]: 90
Plant response rating, Barnyardgrass [17, 31]: 30
Plant response rating, Cocklebur [18, 30]: 0
Plant response rating, Cocklebur [18, 31]: 0
Plant response rating, Velvetleaf [19, 30]: 0
Plant response rating, Velvetleaf [19, 31]: 0
Plant response rating, Surinam grass [20, 30]: 20
Plant response rating, Surinam grass [20, 31]: 0
Plant response rating, Corn (corn (Zea mays) [21]; [30]): 0
Plant response rating, Corn (corn (Zea mays) [21]; [31]): 0
Plant response rating, Morningglory [22, 30]: 0
Plant response rating, Morningglory [22, 31]: 0
Plant response rating, Crabgrass [23, 30]: 70
Plant response rating, Crabgrass [23, 31]: 20
Plant response rating, Foxtail, Giant [24, 30]: 60
Plant response rating, Foxtail, Giant [24, 31]: 0
Plant response rating, Lambsquarters [25, 30]: 100
Plant response rating, Lambsquarters [25, 31]: 100
Plant response rating, Pigweed [26, 30]: 90
Plant response rating, Pigweed [26, 31]: 80
Plant response rating, Rice (rice (Oryza saliva) [27]; [30]): 0
Plant response rating, Rice (rice (Oryza saliva) [27]; [31]): 0
